# Experiments:
# [1] = test system: Primary neural stem cells; assay: In vitro oligodendrocyte differentiation from neural stem cells with breast milk-associated oxysterols (western blot); assay type: cell-based; conditions: 1 μm and 0.5 μm for five days, then 18 days differentiation; FIG. 8
# Experimental: FIG. 8 is a western blot analysis. Stem cells were treated with oxysterols at doses indicated for 5 days then allowed to differentiate for 18 days. Primary neural stem cells were treated with 24-hydroxycholesterol and 25-hydroxycholesterol at 1 μm and 0.5 μm for five days, then allowed to differentiate for 18 days. Protein lysates were probed for oligodendrocyte-associated proteins CNPase and myelin basic protein (MBP).
# smoothened (SMO) = smoothened (SMO) (Homo sapiens, UniProt Q99835); conditions: fibroblast cell culture systems; recent studies; cited from earlier work
# Sequence of smoothened (SMO) (Q99835 28-787): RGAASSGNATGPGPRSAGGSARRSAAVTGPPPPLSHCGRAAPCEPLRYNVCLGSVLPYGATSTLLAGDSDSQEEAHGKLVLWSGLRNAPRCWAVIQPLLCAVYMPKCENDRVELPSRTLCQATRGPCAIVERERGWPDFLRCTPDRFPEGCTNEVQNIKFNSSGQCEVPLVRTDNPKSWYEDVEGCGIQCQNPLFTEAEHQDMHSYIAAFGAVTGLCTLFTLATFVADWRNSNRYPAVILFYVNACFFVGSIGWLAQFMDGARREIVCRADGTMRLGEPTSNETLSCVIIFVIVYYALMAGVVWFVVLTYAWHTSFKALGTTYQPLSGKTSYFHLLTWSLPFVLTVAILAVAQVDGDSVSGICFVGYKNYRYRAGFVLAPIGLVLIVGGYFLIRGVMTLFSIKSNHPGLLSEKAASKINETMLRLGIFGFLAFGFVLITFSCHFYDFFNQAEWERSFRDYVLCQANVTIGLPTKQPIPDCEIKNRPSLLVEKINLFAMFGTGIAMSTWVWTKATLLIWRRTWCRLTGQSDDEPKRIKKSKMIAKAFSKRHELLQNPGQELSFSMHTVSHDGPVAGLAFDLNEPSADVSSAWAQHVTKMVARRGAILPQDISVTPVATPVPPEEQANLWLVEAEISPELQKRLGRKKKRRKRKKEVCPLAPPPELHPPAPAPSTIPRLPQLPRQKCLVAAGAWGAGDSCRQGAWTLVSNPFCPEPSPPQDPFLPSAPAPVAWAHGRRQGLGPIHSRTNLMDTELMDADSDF
# [2] = test system: olig2APC+ oligodendrocytes in the periventricular white matter of the corpus callosum; assay: Perinatal mouse model of sepsis-associated myelin injury, stereological oligodendrocyte counting; assay type: in vivo, mice; conditions: sepsis injury on postnatal day 5; 100 mg/kg/day subcutaneous for 5 days from 24 hours after injury; stereology on postnatal day 25; p=0.001
# Experimental: Quantification of oligodendrocyte cell numbers in the brain is critical to determining the impact of oxysterol therapy. Stereology is a useful research tool used by neuroscientists to provide accurate and unbiased estimates of cell numbers within specified brain regions. The number of oligodendrocyte numbers is determined using Stereo Investoigator™ software (MBF Bioscience) and a Zeiss Axiolmager M2 motorized fluorescent microscope with Apotome structured illumination. Perfusion fixed cryoprotected brains are frozen sectioned at […] and collected free-floating in phosphate buffered saline. […] Olig2+APC+ nucleated cells are then counted throughout the corpus callosum using a 63× oil objective lens.
# Perinatal bowel perforation is a common complication of premature birth and is strongly linked to myelin injury and cerebral palsy. Using a perinatal mouse model of bowel perforation to induce sepsis-associated diffuse myelin injury on postnatal day 5, sepsis mice were determined to have a 60% reduction of mature oligodendrocytes at postnatal day 25 (FIG. 3).
# To determine the efficacy of oxysterol therapy, the perinatal mouse model was employed to induce injury in mice on postnatal day 5. […] Coronal sections of the brains were analyzed using stereology on postnatal day 25 to determine the number of olig2APC+ oligodendrocytes in the periventricular white matter of the corpus callosum. […]
# [3] = test system: olig2+ cells in the corpus callosum; assay: In vivo oligodendrocyte differentiation in uninjured postnatal mice; conditions: uninjured five-day old mice, 100 mg/kg/day subcutaneously, 4 daily doses, analyzed five days after final injection; vs vehicle; p<0.02
# Experimental: 20α-hydroxycholesterol was administered to uninjured postnatal mice during the normal myelination period to determine if oxysterol exposure increased the numbers of oligodendrocytes in vivo. Five-day old mice were administered 4 daily doses of vehicle control (n=4) or 20α-hydroxycholesterol (n=4) subcutaneously (100 mg/kg/day) and rested. Five days after the final injection, the mice were analyzed to quantify the number of olig2+ cells in the corpus callosum (FIG. 2A, FIG. 2B).
# [4] = test system: sepsis-induced myelin injury; assay: CatWalk gait analysis of mice after perinatal sepsis-induced myelin injury; assay type: in vivo; conditions: sepsis-injured mice
# Description: The detection of differences in locomotor function is an important tool for the assessment of the severity of many conditions that affect the central nervous system (CNS), peripheral nervous system (PNS) and skeletal structures or muscles. A gait analysis system, such as the CatWalk™ XT, provides automatic and sensitive detection of a full range of parameters related to footprints and the dynamics of gait in animal testing.
# The impact of oxysterol therapy on motor function in injured mice was also determined. Mice were subjected to sepsis-induced myelin injury on postnatal day 5. Twenty-four hours after injury, septic mice were divided into a vehicle control group and an oxysterol treated group. Treatment with 20α-hydroxycholesterol (100 mg/kg/day) was carried out daily for five days. At two months of age (adult), mice were evaluated on a CatWalk Gait Analysis System (Noldus Inc.). The gait analysis system identified multiple disturbances in the gait of untreated mature mice that survived perinatal sepsis. However, these gait disturbances were not present in mice treated with 20α-hydroxycholesterol.
# Regularity Index: Regularity Index is a measure of interpaw coordination, and disturbances in regularity may be a result of cerebral injury. The Regularity Index was determined for uninjured control mice (FIG. 4A, FIG. 4D), sepsis mice (FIG. 4B, FIG. 4D), and septic mice treated with the oxysterol 20HC (FIG. 4C, FIG. 4D).
# Stand and step cycle: Stand and step cycle are measures of the length of time the animal's paws are in contact with the platform as they walk. Increased stand and step cycle times are measures of gait instability.
# Swing and swing speed: Swing and swing speed are measures of the animals “rocking” as they walk. While the swing was increased in perinatal sepsis survivors (FIG. 5C), the swing speed was decreased in sepsis survivors (FIG. 5D) consistant with an unsteady gait.
# [5] = test system: primary neural stem cells from neonatal mice; assay: In vitro oligodendrocyte differentiation from neural stem cells; assay type: cell-based
# Experimental: To determine the impact of oxysterol exposure on cellular differentiation, primary neural stem cells from neonatal mice were cultured in chamber slides. Cells were cultured in media alone (control) or 1 μM 20α-hydroxycholesterol for 7 days were then allowed to differentiate for 18 days. The differentiated cells were immunostained for markers of oligodendrocytes (Olig2 and CNPase) and visualized on a confocal microscope (FIG. 1A). […] Protein samples from control and 20α-hydroxycholesterol treated stem cell cultures were then fractionated and probed for markers of the oligodendrocyte lineage.
smiles,measurement,setting,value
CC(C)C(O)CC[C@@H](C)[C@H]1CC[C@H]2[C@@H]3CC=C4C[C@@H](O)CC[C@]4(C)[C@H]3CC[C@]12C (some centres unmarked) [24-hydroxycholesterol],expression of oligodendrocyte-associated proteins CNPase and MBP (western blot),[1],induced expression
C[C@H](CCCC(C)(C)O)[C@H]1CC[C@H]2[C@@H]3CC=C4C[C@@H](O)CC[C@]4(C)[C@H]3CC[C@]12C [25-hydroxycholesterol],expression of oligodendrocyte-associated proteins CNPase and MBP (western blot),[1],induced expression
CC(C)CC[C@@H](O)[C@@H](C)[C@H]1CC[C@H]2[C@@H]3CC=C4C[C@@H](O)CC[C@]4(C)[C@H]3CC[C@]12C [22α-hydroxycholesterol],SHH pathway activation via direct binding to smoothened (SMO),smoothened (SMO),activate the SHH pathway
CC(C)CCC[C@](C)(O)[C@H]1CC[C@H]2[C@@H]3CC=C4C[C@@H](O)CC[C@]4(C)[C@H]3CC[C@@]21C [20α-hydroxycholesterol],amount of oligodendrocytes (olig2APC+) within the periventricular white matter,[2],significantly increased
same,olig2+ cell population in the corpus callosum,[3],significant increase
same,SHH pathway activation via direct binding to smoothened (SMO),smoothened (SMO),activate the SHH pathway
same,gait disturbances (CatWalk Gait Analysis System),"[4]; 100 mg/kg/day daily for five days, evaluated at two months of age",not present
same,Regularity Index (interpaw coordination),"[4]; 100 mg/kg/day daily for five days, two months of age, FIG. 4D",completely reversed any observed deficits
same,Swing and swing speed,"[4]; FIG. 5C, 5D",reversed all of these measures of gait disturbances
same,"olig2+ CNPase+ cells (oligodendrocytes), cell counting","[5]; 1 μM for 7 days, then 18 days differentiation, vs media alone, p<0.02, FIG. 1C",significant increase
same,"CNPase, Olig2 and myelin basic protein (MBP), Western blot","[5]; 1 μM treated stem cell cultures vs control, FIG. 1D",increase
